Measurements from patent publication US20240002387A1, “METHOD FOR PREPARING BTK DEGRADING AGENT” (HAISCO PHARMACEUTICALS PTE. LTD., priority 2020, published 2024).

Experiments:
BTK [1] = biological target: BTK (Mus musculus (Mouse), UniProt P35991); experiment: Detection of BTK protein degradation in spleen of mice; format: in vivo
Method: Female ICR mice, 6-8 weeks old, were purchased from BEIJING VITAL RIVER LABORATORY ANIMAL TECHNOLOGY CO., LTD., and the experiment was started after 3 days of acclimatization. After intragastric administration of different doses of the compound for 3 consecutive days, the spleen of mice was taken, the spleen cells were collected, and RIPA lysis buffer (Beyotime, Cat. P0013B) was added. The cells were lysed on ice for 15 minutes and centrifuged at 12000 rpm at 4° C. for 10 minutes. The protein sample of the supernatant was collected, the protein was quantified by using the BCA kit (Beyotime, Cat. P0009), and then the protein was diluted to 0.25 mg/mL. The expressions of BTK (CST, Cat. 8547S) and the internal reference (3-actin (CST, Cat. 3700S) were detected using a fully automated western blot quantitative analyzer (Proteinsimple). The expression level of BTK relative to the internal reference was calculated using Compass software, and the DD50 value was calculated using Origen9.2 software according to formula (2). Specifically, the BTKadministration denoted the expression level of BTK in administration groups at different doses, and the BTKvehicle denoted the expression level of BTK in the vehicle control group.
BTK %=BTKadministration/BTKvehicle×100 formula (2)

BTK [2] = biological target: BTK (Homo sapiens (Human), UniProt Q06187); experiment: Detection of BTK degradation in Mino cells; format: cell-based
Method: Mino human mantle cell lymphoma cell line was purchased from ATCC and cultured under the following conditions: RPMI-1640+15% FBS+1% double antibody in a 37° C., 5% CO2 incubator. Cells were plated in a 6-well plate, with 5×10^5 cells/well. After plating, the compounds at different concentrations were added and cultured in an incubator at 37° C. under 5% CO2 for 48 hours. After culturing, the cells were collected, and RIPA lysis buffer (Beyotime, Cat. P0013B) was added. The cells were lysed on ice for 15 minutes and centrifuged at 12000 rpm at 4° C. for 10 minutes. The protein sample of the supernatant was collected, and the protein was quantified by using the BCA kit (Beyotime, Cat. P0009), and then the protein was diluted to 0.25 mg/mL. The expressions of BTK (CST, Cat. 8547S) and the internal reference (3-actin (CST, Cat. 3700S) were detected using a fully automated western blot quantitative analyzer (Proteinsimple) with a kit (Protein simple, Cat. SM-W004). The expression level of BTK relative to the internal reference was calculated using Compass software, and the DC50 value was calculated using Origen9.2 software according to formula (1). Specifically, the BTK administration denoted the expression level of BTK in administration groups at different doses, and the BTK vehicle denoted the expression level of BTK in the vehicle control group. […]

BTK wt = BTK wt (Homo sapiens (Human), UniProt Q06187); experiment: In vitro kinase detection, BTK wt; format: biochemical
Method: (§1) Kinases BTK wt (Carna, Cat. No. 08-180) and BTK C481S (Cama, Cat. No. 08-547) were prepared into a 2.5× kinase solution, and the substrates FAM-P2 (GL Biochem, Cat. No. 112394) and ATP (Sigma, Cat. No. A7699-1G) were prepared into a 2.5× substrate solution, respectively. 5 μL of compounds at different concentrations were added to a 384-well plate. 10 μl of 2.5× kinase solution was added, and the resulting mixture was incubated at room temperature for 10 min. 10 μL of 2.5× substrate solution was added, and the mixture was incubated at 28° C. for an appropriate period of time. The reaction was stopped by adding 30 μL of stop buffer, and the detection was carried out by using Caliper EZ reader2. The IC50 value was calculated by using XLFit excel add-in version 5.4.0.8 software. The calculation formula of the inhibition rate was shown in formula (3), wherein max denoted the readout of the DMSO control, min denoted the readout of the negative control, and conversion denoted the readout of the compound

BTK C481S = BTK C481S (Homo sapiens (Human), UniProt Q06187, C481S); experiment: In vitro kinase detection, BTK C481S; format: biochemical
Method: as §1

Chain of BTK wt (Q06187 whole entry): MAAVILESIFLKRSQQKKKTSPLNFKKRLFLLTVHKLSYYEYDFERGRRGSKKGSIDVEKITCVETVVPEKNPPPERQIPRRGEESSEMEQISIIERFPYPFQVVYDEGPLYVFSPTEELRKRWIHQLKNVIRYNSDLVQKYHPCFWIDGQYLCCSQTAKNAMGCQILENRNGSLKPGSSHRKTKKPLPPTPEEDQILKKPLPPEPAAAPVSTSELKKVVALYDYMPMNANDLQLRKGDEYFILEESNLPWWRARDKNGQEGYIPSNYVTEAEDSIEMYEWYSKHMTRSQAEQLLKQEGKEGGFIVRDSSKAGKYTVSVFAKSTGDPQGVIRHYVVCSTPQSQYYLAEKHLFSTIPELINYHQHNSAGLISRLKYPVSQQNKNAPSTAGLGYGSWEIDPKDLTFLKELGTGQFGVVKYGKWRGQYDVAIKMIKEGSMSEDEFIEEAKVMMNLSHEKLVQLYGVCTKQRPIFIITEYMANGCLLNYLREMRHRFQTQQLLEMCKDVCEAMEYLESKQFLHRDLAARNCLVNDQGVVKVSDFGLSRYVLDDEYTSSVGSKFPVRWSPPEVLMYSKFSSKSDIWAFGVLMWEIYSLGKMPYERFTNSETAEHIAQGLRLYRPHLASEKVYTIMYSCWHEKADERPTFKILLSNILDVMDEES
Chain of BTK (Homo sapiens (Human), UniProt Q06187) (Q06187 whole entry): as above
Chain of BTK C481S (Q06187 whole entry C481S): as the sequence (Q06187 whole entry) above, with C481S counted along it
Chain of BTK (Mus musculus (Mouse), UniProt P35991) (P35991 whole entry): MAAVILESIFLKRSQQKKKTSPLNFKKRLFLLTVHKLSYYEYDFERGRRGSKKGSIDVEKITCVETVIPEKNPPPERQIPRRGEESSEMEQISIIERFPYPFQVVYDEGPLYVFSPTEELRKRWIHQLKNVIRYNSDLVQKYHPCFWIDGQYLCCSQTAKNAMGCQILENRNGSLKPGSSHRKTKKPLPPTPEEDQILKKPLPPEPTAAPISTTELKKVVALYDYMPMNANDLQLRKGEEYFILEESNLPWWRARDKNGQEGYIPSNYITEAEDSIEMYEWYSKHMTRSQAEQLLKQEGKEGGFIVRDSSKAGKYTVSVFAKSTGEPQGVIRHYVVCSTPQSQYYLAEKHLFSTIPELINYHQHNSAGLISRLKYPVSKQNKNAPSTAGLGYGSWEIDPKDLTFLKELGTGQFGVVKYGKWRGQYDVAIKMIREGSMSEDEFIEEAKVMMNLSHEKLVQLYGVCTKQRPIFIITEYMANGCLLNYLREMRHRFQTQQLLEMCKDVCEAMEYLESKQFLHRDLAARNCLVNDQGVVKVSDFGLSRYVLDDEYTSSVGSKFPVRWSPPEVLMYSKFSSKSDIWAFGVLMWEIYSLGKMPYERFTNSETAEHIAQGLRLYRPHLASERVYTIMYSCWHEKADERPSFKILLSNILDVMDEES

degradation effect on BTK proteins in spleen of mice (conclusion) (BTK [1]): significant degradation effect
degradation effect on BTK in Mino cells (conclusion) (BTK [2]): significant degradation effect
DC50 (BTK [2]; 48 hours, western blot): 10.9 nM
IC50 (BTK wt): 6.3 nM
inhibitory effect on BTK wt kinase (conclusion) (BTK wt): significant inhibitory effect
IC50 (BTK C481S): 8 nM
inhibitory effect on BTK C481S kinase (conclusion) (BTK C481S): significant inhibitory effect
SMILES: Nc1ncnc2c1c(-c1ccc(Oc3ccccc3)cc1)nn2C1CCN(C2CN(C3CN(c4ccc5c(c4)C(=O)N(C4CCC(=O)NC4=O)C5=O)C3)C2)CC1 (stereo not shown) [Compound 1, 5-[3-[3-[4-[4-amino-3-(4-phenoxyphenyl]pyrazolo[3,4-d]pyrimidin-1-yl]-1-piperidyl]azetidin-1-yl]azetidin-1-yl]-2-(2,6-dioxo-3-piperidyl)isoindoline-1,3-dione]
